From ChEMBL document CHEMBL1129670, “Synthesis and structure-activity relationships of N-propyl-N-(4-pyridinyl)-1H-indol-1-amine (besipirdine) and related analogs as potential therapeutic agents for Alzheimer's disease” (J Med Chem, 1996) come the findings set out here.

Assay [1] has as its target Muscarinic acetylcholine receptor. The class given is cell membranes, Membrane.
Description: Inhibition of [3H]quinuclidinyl benzilate (QNB) binding from rat forebrain membranes in the absence of Zn
For assay [2], the species on record is Mus musculus. The assay can be described thus: animal or person.
Description: Effective dose against administration in mice
The species named for assay [3] is Mus musculus. The assay can be described thus: Antagonistic activity against Scopolamine induced behavioral deficits in mice; 2/6. The assay is classed as functional.
Assay [4] concerns the target Sodium-dependent noradrenaline transporter (Homo sapiens, UniProt P23975).
Description: Inhibitory activity against norepinephrine (NE) uptake in rat whole brain synaptosome preparation
Assay [5] has as its system Mus musculus. The experiment in a line: Antagonistic activity against Scopolamine induced behavioral deficits in mice at dose 0.16 mg/kg sc. The assay is classed as functional. To be noted: route subcutaneous.
Assay [6] deals with Muscarinic acetylcholine receptor. The class given is cell membranes, Membrane. The source holds these as a separate data set.
Description: Inhibition of [3H]quinuclidinyl benzilate (QNB) binding from rat forebrain membranes in the presence of Zn
Assay [7] is filed under the species Mus musculus. To be noted: dose 0.63 mg/kg; route subcutaneous.
Description: Antagonistic activity against Scopolamine induced behavioral deficits in mice at dose 0.63 mg/kg sc
In assay [8] the test system is Mus musculus. The experiment in a line: Antagonistic activity against Scopolamine induced behavioral deficits in mice at dose 0.04 mg/kg sc. The class given is functional. To be noted: route subcutaneous.
For assay [9], the species on record is Mus musculus. The assay can be described thus: Antagonistic activity against Scopolamine induced behavioral deficits in mice; 2/10. The class given is functional.
A further assay concerns the target T1, Acetylcholinesterase (Rattus norvegicus, UniProt P37136).
T1 sequence (P37136 whole entry): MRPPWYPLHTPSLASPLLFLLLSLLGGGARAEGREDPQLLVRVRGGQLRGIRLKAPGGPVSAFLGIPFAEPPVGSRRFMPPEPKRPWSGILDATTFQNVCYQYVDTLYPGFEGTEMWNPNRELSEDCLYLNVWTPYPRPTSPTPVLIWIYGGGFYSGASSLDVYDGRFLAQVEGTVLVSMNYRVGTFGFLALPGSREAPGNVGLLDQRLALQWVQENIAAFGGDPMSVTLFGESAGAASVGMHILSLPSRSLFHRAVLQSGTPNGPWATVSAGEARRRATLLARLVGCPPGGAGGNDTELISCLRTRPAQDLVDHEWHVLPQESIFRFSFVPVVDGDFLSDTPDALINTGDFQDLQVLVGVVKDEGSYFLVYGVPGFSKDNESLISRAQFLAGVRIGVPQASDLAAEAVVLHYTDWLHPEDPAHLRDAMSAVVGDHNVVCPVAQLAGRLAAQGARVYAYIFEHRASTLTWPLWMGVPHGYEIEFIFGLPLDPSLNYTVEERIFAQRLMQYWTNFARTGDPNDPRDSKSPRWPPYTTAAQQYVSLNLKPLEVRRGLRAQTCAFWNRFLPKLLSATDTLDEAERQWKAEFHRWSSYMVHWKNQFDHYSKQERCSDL

Assay [10] relates to Mus musculus. The assay can be described thus: Antagonistic activity against Scopolamine induced behavioral deficits in mice at dose […] sc. The assay is classed as functional. To be noted: route subcutaneous.
Assay [11] addresses T2, Adrenergic receptor alpha-2 (Rattus norvegicus, UniProt P22086+P19328+P22909).
T2 sequence (P22086 whole entry): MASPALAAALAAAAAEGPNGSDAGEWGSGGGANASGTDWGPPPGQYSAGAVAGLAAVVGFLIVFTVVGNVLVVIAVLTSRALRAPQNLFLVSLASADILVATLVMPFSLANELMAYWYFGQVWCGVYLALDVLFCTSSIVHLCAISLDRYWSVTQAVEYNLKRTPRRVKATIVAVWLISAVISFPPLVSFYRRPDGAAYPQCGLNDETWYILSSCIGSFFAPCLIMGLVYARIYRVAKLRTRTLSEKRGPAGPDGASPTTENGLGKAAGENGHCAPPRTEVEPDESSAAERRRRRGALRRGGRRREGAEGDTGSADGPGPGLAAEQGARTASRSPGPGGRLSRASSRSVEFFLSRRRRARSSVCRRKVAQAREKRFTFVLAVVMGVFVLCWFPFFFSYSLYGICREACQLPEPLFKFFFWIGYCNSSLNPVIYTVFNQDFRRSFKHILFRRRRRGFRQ
T2 sequence (P19328 whole entry): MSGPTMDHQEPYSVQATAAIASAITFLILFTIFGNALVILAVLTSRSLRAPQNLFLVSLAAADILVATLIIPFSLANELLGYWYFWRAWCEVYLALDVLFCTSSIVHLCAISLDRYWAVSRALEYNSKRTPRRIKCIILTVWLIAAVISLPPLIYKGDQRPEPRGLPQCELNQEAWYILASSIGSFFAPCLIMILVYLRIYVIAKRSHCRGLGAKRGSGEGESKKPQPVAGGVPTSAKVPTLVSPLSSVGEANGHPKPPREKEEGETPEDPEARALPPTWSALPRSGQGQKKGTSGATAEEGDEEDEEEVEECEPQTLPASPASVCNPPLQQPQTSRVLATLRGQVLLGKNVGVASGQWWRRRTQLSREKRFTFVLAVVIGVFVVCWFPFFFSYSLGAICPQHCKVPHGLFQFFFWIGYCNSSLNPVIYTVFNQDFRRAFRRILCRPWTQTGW
T2 sequence (P22909 whole entry): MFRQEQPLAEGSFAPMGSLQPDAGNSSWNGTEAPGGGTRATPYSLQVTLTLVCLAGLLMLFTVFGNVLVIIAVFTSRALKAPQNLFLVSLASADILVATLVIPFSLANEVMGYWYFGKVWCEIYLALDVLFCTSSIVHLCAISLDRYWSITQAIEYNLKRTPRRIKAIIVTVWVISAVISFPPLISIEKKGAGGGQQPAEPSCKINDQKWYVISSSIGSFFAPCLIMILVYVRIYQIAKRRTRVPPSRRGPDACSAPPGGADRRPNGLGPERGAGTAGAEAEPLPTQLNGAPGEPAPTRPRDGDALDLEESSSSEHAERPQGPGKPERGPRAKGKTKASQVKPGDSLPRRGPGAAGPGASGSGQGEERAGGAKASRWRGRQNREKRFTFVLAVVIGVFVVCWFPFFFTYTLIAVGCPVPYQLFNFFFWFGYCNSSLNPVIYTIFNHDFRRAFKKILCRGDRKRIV
The experiment in a line: Inhibitory activity against [3H]clonidine binding to Alpha-2 adrenergic receptor in rat cortex.

In assay [12] the test system is Mus musculus. The assay can be described thus: Antagonistic activity against Scopolamine induced behavioral deficits in mice at dose 10 mg/kg sc. The note with it: route subcutaneous. The assay is classed as functional.
For assay [13], the system named is Mus musculus. The assay can be described thus: Antagonistic activity against Scopolamine induced behavioral deficits in mice at dose 1.25 mg/kg sc. The class given is functional. To be noted: route subcutaneous.
Assay [14] deals with Mus musculus. The assay can be described thus: Antagonistic activity against Scopolamine induced behavioral deficits in mice at dose 5.0 mg/kg sc; 2/8. The class given is functional.
In assay [15] the target is T3, Adrenergic receptor alpha-1 (Rattus norvegicus, UniProt P15823+P23944+P43140).
T3 sequence (P15823 whole entry): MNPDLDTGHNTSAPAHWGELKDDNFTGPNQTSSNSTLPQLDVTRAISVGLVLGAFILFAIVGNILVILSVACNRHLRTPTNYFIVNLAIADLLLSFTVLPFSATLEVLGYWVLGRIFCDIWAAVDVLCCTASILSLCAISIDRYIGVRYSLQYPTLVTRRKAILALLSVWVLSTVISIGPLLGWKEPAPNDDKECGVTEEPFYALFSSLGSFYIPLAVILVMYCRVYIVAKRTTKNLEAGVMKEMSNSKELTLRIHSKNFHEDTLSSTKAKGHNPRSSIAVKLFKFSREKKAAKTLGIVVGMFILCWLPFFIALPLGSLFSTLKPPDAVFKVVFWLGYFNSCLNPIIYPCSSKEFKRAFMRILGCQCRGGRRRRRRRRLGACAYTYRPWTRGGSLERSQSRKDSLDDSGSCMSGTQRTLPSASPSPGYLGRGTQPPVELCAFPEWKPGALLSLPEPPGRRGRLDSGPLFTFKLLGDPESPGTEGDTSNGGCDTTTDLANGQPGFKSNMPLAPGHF
T3 sequence (P23944 whole entry): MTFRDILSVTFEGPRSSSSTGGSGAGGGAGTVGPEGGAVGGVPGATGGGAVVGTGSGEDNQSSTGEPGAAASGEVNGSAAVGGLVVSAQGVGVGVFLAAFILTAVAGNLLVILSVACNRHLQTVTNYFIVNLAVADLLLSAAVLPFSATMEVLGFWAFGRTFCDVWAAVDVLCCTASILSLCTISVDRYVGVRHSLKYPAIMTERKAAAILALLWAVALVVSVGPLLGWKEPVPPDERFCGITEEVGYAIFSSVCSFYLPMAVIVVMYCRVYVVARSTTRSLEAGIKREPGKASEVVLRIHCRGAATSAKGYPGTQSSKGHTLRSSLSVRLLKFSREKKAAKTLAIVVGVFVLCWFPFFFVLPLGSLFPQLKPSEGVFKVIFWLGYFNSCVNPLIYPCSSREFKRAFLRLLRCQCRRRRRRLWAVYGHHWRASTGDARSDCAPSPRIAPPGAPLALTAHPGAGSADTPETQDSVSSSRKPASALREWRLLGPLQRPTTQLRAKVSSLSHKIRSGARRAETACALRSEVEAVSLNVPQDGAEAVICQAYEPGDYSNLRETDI
T3 sequence (P43140 whole entry): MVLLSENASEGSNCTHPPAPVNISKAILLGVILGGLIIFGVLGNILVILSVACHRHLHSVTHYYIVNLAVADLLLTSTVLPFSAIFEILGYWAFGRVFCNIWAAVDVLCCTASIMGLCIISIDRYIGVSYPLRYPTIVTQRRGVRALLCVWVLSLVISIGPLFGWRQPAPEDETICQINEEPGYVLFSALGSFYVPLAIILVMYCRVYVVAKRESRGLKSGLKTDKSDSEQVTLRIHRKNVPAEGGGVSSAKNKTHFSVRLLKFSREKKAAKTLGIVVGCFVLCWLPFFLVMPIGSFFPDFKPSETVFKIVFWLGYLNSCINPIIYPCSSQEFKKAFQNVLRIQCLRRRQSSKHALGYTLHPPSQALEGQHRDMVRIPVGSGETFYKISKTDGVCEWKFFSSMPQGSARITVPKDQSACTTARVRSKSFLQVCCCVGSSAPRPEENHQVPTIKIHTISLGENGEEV
The assay can be described thus: Inhibitory activity against [3H]WB-4101 binding to Alpha-1 adrenergic receptor in rat whole brain membrane. The class given is cell membranes.

Bounds are passed on as bounds.

Sodium-dependent noradrenaline transporter, sequence (P23975 whole entry): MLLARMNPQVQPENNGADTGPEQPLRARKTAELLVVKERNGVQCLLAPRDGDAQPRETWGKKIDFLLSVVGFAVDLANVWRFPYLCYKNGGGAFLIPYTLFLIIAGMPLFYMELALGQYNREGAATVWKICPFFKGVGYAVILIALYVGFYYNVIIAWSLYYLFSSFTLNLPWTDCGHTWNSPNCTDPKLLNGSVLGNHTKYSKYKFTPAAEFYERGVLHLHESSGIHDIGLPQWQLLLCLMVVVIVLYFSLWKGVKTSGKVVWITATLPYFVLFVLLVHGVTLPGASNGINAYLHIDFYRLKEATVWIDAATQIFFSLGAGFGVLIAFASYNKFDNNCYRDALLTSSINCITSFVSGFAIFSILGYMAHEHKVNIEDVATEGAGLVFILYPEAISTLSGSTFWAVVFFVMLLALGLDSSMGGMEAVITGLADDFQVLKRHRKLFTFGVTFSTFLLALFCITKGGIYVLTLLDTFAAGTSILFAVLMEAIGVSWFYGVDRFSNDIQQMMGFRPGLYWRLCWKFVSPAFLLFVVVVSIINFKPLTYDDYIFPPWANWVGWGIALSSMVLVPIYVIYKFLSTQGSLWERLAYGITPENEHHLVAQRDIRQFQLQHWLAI
Description for Acetylcholinesterase: Inhibitory activity against acetylcholinesterase in rat striatal preparation

What is called IC50 is the concentration that gives 50% inhibition. One may read the ED50 as the dose at which the effect has come halfway, by size or by number of responders. Read a low ED50 as greater potency. With `CCCN(c1[nH]cnc2ncnc1-2)n1ccc2ccccc21`, the IC50 was > 300 µM in assay [1], 12 µM in [4] and 58 µM in [6]. For the same compound, the ED50 in the assay filed under Mus musculus [2] was > 20 mg/kg. In addition, the Antagonism in the assay listed under Mus musculus [3] worked out at 2. Besides, the Response with Mus musculus [5] and in the assay filed under Mus musculus [7] was 20% throughout.
On to `CCCN(c1ccncc1)n1cc(C)c2ccccc21`, for which the Response in the assay with Mus musculus [8] is 22%; in the assay with Mus musculus [10], 20%. Further, the IC50 in assay [1] came out at 19 µM; against Acetylcholinesterase, 29 µM; in [4] it was 1.3 µM; in [6], 4.5 µM; in assay [11] it was 2.5 µM. The same compound displayed an Antagonism in the assay listed under Mus musculus [9] of 2. The ED50 in the assay filed under Mus musculus [2] is 1.8 mg/kg.
Consider `CCCN(c1ccncc1)n1c2ccccc2c2ccccc21.O=C(O)/C=C/C(=O)O`, for which the IC50 was 5.5 µM in assay [1]; > 100 µM against Acetylcholinesterase; 2.4 µM in assay [4]; 3.2 µM in [15]; 0.5 µM in [6]; 0.54 µM in [11]. Further, the ED50 in the assay listed under Mus musculus [2] is 1.5 mg/kg. In addition, the values for the Response in the assay on Mus musculus [12] and in the assay on Mus musculus [13] were 24% and 20%, respectively. In the assay with Mus musculus [14], the Antagonism stood at 2.
